Test results as given in US9918915B2, “Personal care compositions providing enhanced cooling sensation” (THE PROCTER & GAMBLE COMPANY, priority 2007, dated 2018).
Each block holds one compound with its values, some of them ahead of it.

Assays:
panelists = assay: Sensory evaluation of cooling sensation after brushing with coolant dentifrice followed by aqueous rinse with or without calcium; assay type: in vivo, human; parameters: key to Cooling Sensation Score: 0 = no cooling, 60 = intense cooling; 7.5 = definite cooling; conditions: for Cooling Sensation Score: 0-60 scale
Experimental: Sensory evaluation studies of coolant activity were conducted using a methodology patterned after the techniques described in M. C. Meilgaard, et al., Sensory Evaluation Techniques, 4th Ed. (2007). In one study, a panel of 11 trained sensory experts evaluated cooling sensation experienced after brushing with a dentifrice containing coolant(s) followed by rinsing with an aqueous rinse containing a calcium ion source. Panelists brushed teeth with 1.5 grams of a test dentifrice (containing coolant) or control (no coolant) and then expectorated. After brush expectoration, panelists evaluated cooling intensity, assigning a number between 0 (no cooling) to 60 (intense cooling). Panelists then rinsed mouth with 15 ml. of an aqueous rinse (with or without calcium) and expectorated. After rinse expectoration, panelists evaluated cooling intensity according to the same 0 to 60 scale. Evaluations were conducted at 5, 15, 30, 45, 60 minute, etc. time points. At each evaluation, panelists were instructed to breathe in through pursed lips and evaluate overall cooling sensation. In this test, a numerical score of 7.5 indicates meaningful or definite cooling.

human TRPM8 = human TRPM8 (Homo sapiens, UniProt Q7Z2W7); assay: FLIPR intracellular calcium flux (Fluo-4) in HEK cells stably transfected with human TRPM8; conditions: for % Change from G-180 value: pre-treatment with 100 uM test compound + 6.25 uM G-180 vs 6.25 uM G-180 alone, calcium fluorescence; for Average Fluorescence (n = 3): HEK cells with human TRPM8, Fluo-4
Sequence of human TRPM8 (Q7Z2W7 whole entry): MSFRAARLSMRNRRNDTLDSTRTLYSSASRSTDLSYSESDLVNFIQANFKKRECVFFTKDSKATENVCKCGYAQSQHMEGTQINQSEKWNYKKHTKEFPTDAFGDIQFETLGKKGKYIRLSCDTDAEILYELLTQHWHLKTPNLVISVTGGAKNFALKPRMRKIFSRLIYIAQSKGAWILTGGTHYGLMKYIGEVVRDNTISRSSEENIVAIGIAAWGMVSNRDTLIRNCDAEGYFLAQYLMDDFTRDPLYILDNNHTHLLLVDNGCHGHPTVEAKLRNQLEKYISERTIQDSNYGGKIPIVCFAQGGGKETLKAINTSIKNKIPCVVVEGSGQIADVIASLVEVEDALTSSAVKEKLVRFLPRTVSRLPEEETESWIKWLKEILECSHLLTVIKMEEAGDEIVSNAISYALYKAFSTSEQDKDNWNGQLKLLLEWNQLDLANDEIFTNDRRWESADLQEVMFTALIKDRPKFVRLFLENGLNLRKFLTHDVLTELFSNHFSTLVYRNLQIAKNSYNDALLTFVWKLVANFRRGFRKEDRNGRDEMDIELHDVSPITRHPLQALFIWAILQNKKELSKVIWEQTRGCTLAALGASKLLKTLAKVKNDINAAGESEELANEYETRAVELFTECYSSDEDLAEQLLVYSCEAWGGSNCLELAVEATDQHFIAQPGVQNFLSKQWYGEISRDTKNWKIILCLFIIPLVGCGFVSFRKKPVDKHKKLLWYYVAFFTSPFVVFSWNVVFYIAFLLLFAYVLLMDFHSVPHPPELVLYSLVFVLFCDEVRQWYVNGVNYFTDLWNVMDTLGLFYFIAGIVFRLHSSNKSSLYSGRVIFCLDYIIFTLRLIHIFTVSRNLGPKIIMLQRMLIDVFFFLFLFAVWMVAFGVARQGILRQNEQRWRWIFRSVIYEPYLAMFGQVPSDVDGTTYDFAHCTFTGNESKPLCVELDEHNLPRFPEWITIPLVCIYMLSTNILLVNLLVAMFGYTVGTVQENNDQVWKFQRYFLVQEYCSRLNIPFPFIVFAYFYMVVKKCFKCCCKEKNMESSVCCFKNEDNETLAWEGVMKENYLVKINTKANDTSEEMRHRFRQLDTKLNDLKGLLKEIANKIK

[1] = 1500 ppm coolant in paste, rinse Ca+2 0 ppm, 0 min.
[2] = 1500 ppm coolant in paste, rinse Ca+2 0 ppm, 5 min.
[3] = 1500 ppm coolant in paste, rinse Ca+2 0 ppm, 15 min.
[4] = 1500 ppm coolant in paste, rinse Ca+2 0 ppm, 30 min.
[5] = 1500 ppm coolant in paste, rinse Ca+2 0 ppm, 45 min.
[6] = 1500 ppm coolant in paste, rinse Ca+2 0 ppm, 60 min.
[7] = 1000 ppm coolant in paste, rinse Ca+2 0 ppm, 0 min.
[8] = 1000 ppm coolant in paste, rinse Ca+2 0 ppm, 5 min.
[9] = 1000 ppm coolant in paste, rinse Ca+2 0 ppm, 15 min.
[10] = 1000 ppm coolant in paste, rinse Ca+2 0 ppm, 30 min.
[11] = 1000 ppm coolant in paste, rinse Ca+2 0 ppm, 45 min.
[12] = 1000 ppm coolant in paste, rinse Ca+2 0 ppm, 60 min.
[13] = pre-treatment with 100 uM test compound for 30 minutes, then 6.25 uM G-180
[14] = 800 ppm coolant in paste, rinse Ca+2 0 ppm, 0 min.
[15] = 800 ppm coolant in paste, rinse Ca+2 0 ppm, 5 min.
[16] = 800 ppm coolant in paste, rinse Ca+2 0 ppm, 15 min.
[17] = 800 ppm coolant in paste, rinse Ca+2 0 ppm, 30 min.
[18] = 800 ppm coolant in paste, rinse Ca+2 0 ppm, 45 min.
[19] = 800 ppm coolant in paste, rinse Ca+2 0 ppm, 60 min.
[20] = 800 ppm coolant in paste, rinse Ca+2 723 ppm, 0 min.
[21] = 800 ppm coolant in paste, rinse Ca+2 723 ppm, 5 min.
[22] = 800 ppm coolant in paste, rinse Ca+2 723 ppm, 15 min.
[23] = 800 ppm coolant in paste, rinse Ca+2 723 ppm, 30 min.
[24] = 800 ppm coolant in paste, rinse Ca+2 723 ppm, 45 min.
[25] = 800 ppm coolant in paste, rinse Ca+2 723 ppm, 60 min.

Structure (SMILES): CC(C)[C@@H]1CC[C@@H](C)CC12OCC(CO)O2 (some centres unmarked) [MGA, menthone glycerol acetal]
Cooling Sensation Score (panelists; [1]): 16.5
Cooling Sensation Score (panelists; [2]): 13.6
Cooling Sensation Score (panelists; [3]): 4.4
Cooling Sensation Score (panelists; [4]): 0
Cooling Sensation Score (panelists; [5]): 0
Cooling Sensation Score (panelists; [6]): 0
Cooling Sensation Score (panelists; 1500 ppm coolant in paste, rinse Ca+2 723 ppm, 0 min.): 20.7
Cooling Sensation Score (panelists; 1500 ppm coolant in paste, rinse Ca+2 723 ppm, 5 min.): 18.3
Cooling Sensation Score (panelists; 1500 ppm coolant in paste, rinse Ca+2 723 ppm, 15 min.): 7.0
Cooling Sensation Score (panelists; 1500 ppm coolant in paste, rinse Ca+2 723 ppm, 30 min.): 1.4
Cooling Sensation Score (panelists; 1500 ppm coolant in paste, rinse Ca+2 723 ppm, 45 min.): 0
Cooling Sensation Score (panelists; 1500 ppm coolant in paste, rinse Ca+2 723 ppm, 60 min.): 0
Calcium enhancing effect on cooling (panelists; 1500 ppm level of coolant in dentifrice): calcium enhancing effect was also observed
Potentiating effect of calcium ions on cooling intensity and duration (panelists; at the levels of coolant and calcium used): particularly evident

Structure (SMILES): CC1CCC(C(C)C)C(OC(=O)C(C)O)C1 (centres unmarked) [Menthyl Lactate, menthyl lactate]
Cooling Sensation Score (panelists; [7]): 23.0
Cooling Sensation Score (panelists; [8]): 12.7
Cooling Sensation Score (panelists; [9]): 2.3
Cooling Sensation Score (panelists; [10]): 0
Cooling Sensation Score (panelists; [11]): 0
Cooling Sensation Score (panelists; [12]): 0
Cooling Sensation Score (panelists; 1000 ppm coolant in paste, rinse Ca+2 723 ppm, 0 min.): 23.5
Cooling Sensation Score (panelists; 1000 ppm coolant in paste, rinse Ca+2 723 ppm, 5 min.): 12.4
Cooling Sensation Score (panelists; 1000 ppm coolant in paste, rinse Ca+2 723 ppm, 15 min.): 2.2
Cooling Sensation Score (panelists; 1000 ppm coolant in paste, rinse Ca+2 723 ppm, 30 min.): 0
Cooling Sensation Score (panelists; 1000 ppm coolant in paste, rinse Ca+2 723 ppm, 45 min.): 0
Cooling Sensation Score (panelists; 1000 ppm coolant in paste, rinse Ca+2 723 ppm, 60 min.): 0

% Change from G-180 value (human TRPM8): 0.66%
Average Fluorescence (n = 3) (human TRPM8; [13]): 17628.02
Structure (SMILES): O=P([O-])([O-])OP(=O)([O-])OP(=O)([O-])[O-].[Na+].[Na+].[Na+].[Na+].[Na+] [Penta sodium triphosphate]

Average Fluorescence (n = 3) (human TRPM8; 100 uM test compound alone (direct effect on TRPM8)): 129.38
% Change from G-180 value (human TRPM8): 23.36%
% Change from G-180 value (human TRPM8; listed as Phytic Acid): 21.20%
% Change from G-180 value (human TRPM8; listed as phytic acid): 23.36%
Average Fluorescence (n = 3) (human TRPM8; [13]): 18382.62
Average Fluorescence (n = 3) (human TRPM8; pre-treatment with 100 uM test compound for 30 minutes, then 6.25 uM G-180, listed as Phytic Acid): 21178.86
Modulation of the G-180 activity at TRPM8 (human TRPM8; separate experiments using the same protocol, 100 uM + 6.25 uM G-180): positive modulation was confirmed
Structure (SMILES): O=P(O)(O)O[C@H]1[C@H](OP(=O)(O)O)[C@@H](OP(=O)(O)O)[C@H](OP(=O)(O)O)[C@@H](OP(=O)(O)O)[C@H]1OP(=O)(O)O [Phytic acid, myo-inositol 1,2,3,4,5,6-hexakis (dihydrogen phosphate)]

% Change from G-180 value (human TRPM8): 3.22%
Average Fluorescence (n = 3) (human TRPM8; [13]): 18075.77
Structure (SMILES): O=P([O-])(O)OP(=O)([O-])O.[Na+].[Na+] [Sodium acid pyrophosphate]

% Change from G-180 value (human TRPM8): 5.10%
Average Fluorescence (n = 3) (human TRPM8; [13]): 18404.83
Structure (SMILES): CCCCCCCCCCCCOP(=O)([O-])[O-].[Na+].[Na+] [Sodium lauryl phosphate]

% Change from G-180 value (human TRPM8): 5.69%
Average Fluorescence (n = 3) (human TRPM8; [13]): 18508.43
Structure (SMILES): O=P(O)(O)OP(=O)(O)OP(=O)(O)O [Sodium tripolyphosphate]

Structure (SMILES): CCNC(=O)C1CC(C)CCC1C(C)C (centres unmarked) [WS-3, N-ethyl-ρ-menthan-3-carboxamide]
Cooling Sensation Score (panelists; [7]): 26.2
Cooling Sensation Score (panelists; [8]): 25.4
Cooling Sensation Score (panelists; [9]): 11.3
Cooling Sensation Score (panelists; [10]): 0
Cooling Sensation Score (panelists; [11]): 0
Cooling Sensation Score (panelists; [12]): 0
Cooling Sensation Score (panelists; 1000 ppm coolant in paste, rinse Ca+2 271 ppm, 0 min.): 23.8
Cooling Sensation Score (panelists; 1000 ppm coolant in paste, rinse Ca+2 271 ppm, 5 min.): 21.4
Cooling Sensation Score (panelists; 1000 ppm coolant in paste, rinse Ca+2 271 ppm, 15 min.): 10.8
Cooling Sensation Score (panelists; 1000 ppm coolant in paste, rinse Ca+2 271 ppm, 30 min.): 2.4
Cooling Sensation Score (panelists; 1000 ppm coolant in paste, rinse Ca+2 271 ppm, 45 min.): 0
Cooling Sensation Score (panelists; 1000 ppm coolant in paste, rinse Ca+2 271 ppm, 60 min.): 0
Cooling Sensation Score (panelists; 1000 ppm coolant in paste, rinse Ca+2 542 ppm, 0 min.): 23.6
Cooling Sensation Score (panelists; 1000 ppm coolant in paste, rinse Ca+2 542 ppm, 5 min.): 14.0
Cooling Sensation Score (panelists; 1000 ppm coolant in paste, rinse Ca+2 542 ppm, 15 min.): 0
Cooling Sensation Score (panelists; 1000 ppm coolant in paste, rinse Ca+2 542 ppm, 30 min.): 0
Cooling Sensation Score (panelists; 1000 ppm coolant in paste, rinse Ca+2 542 ppm, 45 min.): 0
Cooling Sensation Score (panelists; 1000 ppm coolant in paste, rinse Ca+2 542 ppm, 60 min.): 0
Cooling Sensation Score (panelists; [1]): 18.1
Cooling Sensation Score (panelists; [2]): 29.4
Cooling Sensation Score (panelists; [3]): 12.7
Cooling Sensation Score (panelists; [4]): 0
Cooling Sensation Score (panelists; [5]): 0
Cooling Sensation Score (panelists; [6]): 0
Cooling Sensation Score (panelists; 1500 ppm coolant in paste, rinse Ca+2 271 ppm, 0 min.): 20.0
Cooling Sensation Score (panelists; 1500 ppm coolant in paste, rinse Ca+2 271 ppm, 5 min.): 29.8
Cooling Sensation Score (panelists; 1500 ppm coolant in paste, rinse Ca+2 271 ppm, 15 min.): 9.5
Cooling Sensation Score (panelists; 1500 ppm coolant in paste, rinse Ca+2 271 ppm, 30 min.): 1.1
Cooling Sensation Score (panelists; 1500 ppm coolant in paste, rinse Ca+2 271 ppm, 45 min.): 0
Cooling Sensation Score (panelists; 1500 ppm coolant in paste, rinse Ca+2 271 ppm, 60 min.): 0
Cooling Sensation Score (panelists; 1500 ppm coolant in paste, rinse Ca+2 542 ppm, 0 min.): 19.3
Cooling Sensation Score (panelists; 1500 ppm coolant in paste, rinse Ca+2 542 ppm, 5 min.): 23.7
Cooling Sensation Score (panelists; 1500 ppm coolant in paste, rinse Ca+2 542 ppm, 15 min.): 5.0
Cooling Sensation Score (panelists; 1500 ppm coolant in paste, rinse Ca+2 542 ppm, 30 min.): 2.7
Cooling Sensation Score (panelists; 1500 ppm coolant in paste, rinse Ca+2 542 ppm, 45 min.): 0
Cooling Sensation Score (panelists; 1500 ppm coolant in paste, rinse Ca+2 542 ppm, 60 min.): 0

Structure (SMILES): CCOC(=O)CNC(=O)C1CC(C)CCC1C(C)C (centres unmarked) [WS-5, N-ethoxycarbonylmethyl-ρ-menthan-3-carboxamide]
Cooling Sensation Score (panelists; [14]): 29.2
Cooling Sensation Score (panelists; [15]): 22.4
Cooling Sensation Score (panelists; [16]): 8.3
Cooling Sensation Score (panelists; [17]): 1.0
Cooling Sensation Score (panelists; [18]): 0
Cooling Sensation Score (panelists; [19]): 0
Cooling Sensation Score (panelists; [20]): 30.8
Cooling Sensation Score (panelists; [21]): 22.2
Cooling Sensation Score (panelists; [22]): 8.4
Cooling Sensation Score (panelists; [23]): 2.2
Cooling Sensation Score (panelists; [24]): 0
Cooling Sensation Score (panelists; [25]): 0

Structure (SMILES): CNC(=O)C(C)(C(C)C)C(C)C [WS-23, N,2,3-trimethyl-2-isopropylbutanamide]
Cooling Sensation Score (panelists; [14]): 15.4
Cooling Sensation Score (panelists; [15]): 7.4
Cooling Sensation Score (panelists; [16]): 3.0
Cooling Sensation Score (panelists; [17]): 0
Cooling Sensation Score (panelists; [18]): 0
Cooling Sensation Score (panelists; [19]): 0
Cooling Sensation Score (panelists; [20]): 18.8
Cooling Sensation Score (panelists; [21]): 4.9
Cooling Sensation Score (panelists; [22]): 1.0
Cooling Sensation Score (panelists; [23]): 0
Cooling Sensation Score (panelists; [24]): 0
Cooling Sensation Score (panelists; [25]): 0
